Key:
Type in all cases: binding
oligo (dA•dT) = experiment: Affinity selection of amine/salicylaldehyde/Zn2+ library on DNA-cellulose resin, HPLC of derivatized amines in initial elution; conditions: 82 μM salicylaldehyde, 164 μM each amine
Procedure: For each sample, 15 mg oligo(dT) cellulose was weighed into a 2 ml Bio-Rad BIOSPIN™ polypropylene chromatography column equipped with a glass frit. The resin was then taken up in 750 μl HEPES buffer (10 mM HEPES, 100 mM KC1, pH 6.8). 0.5 A(260) units of oligo(dA) were then added in 50 μl H2O and allowed to incubate on the resin for one hour at ambient temperature prior to the addition of library samples. During this pre-incubation period, as well as throughout the remainder of the experiments, gentle agitation was provided by rotating the samples on a Barnstead-Thermolyne LAB QUAKE™ rotary shaker. In a similar manner, 15 mg of unfunctionalized cellulose for each control experiment was allowed to soak in 800 μl HEPES buffer at ambient temperature for one hour prior to the addition of library samples.
As one skilled in the are will note, the complexes shown above represent only a subset of the complexes that would be present in this equilibrium. Samples were prepared in triplicate from stock solutions as indicated in Table 1 to provide a total volume of 450 μl. An identical set of samples was prepared for control experiments. In each case, libraries were allowed to incubate at ambient temperature for one hour prior to addition to the DNA-cellulose or control cellulose resin. Additional sets of library samples were prepared according to lines C and D of Table 1 for control experiments conducted in the absence of DNA-cellulose or unfunctionalized cellulose resin.
Following the pre-incubation period, each sample was added to either a DNA-cellulose or unfunctionalized cellulose column as appropriate. These samples were then allowed to incubate on the resin with gentle agitation at ambient temperature for six hours. Solutions were then eluted from the resin, frozen, and lyophilized prior to derivatization and analysis as described below. […]
In order to separate and identify as many constituents of each sample as possible, a minimum of two HPLC elutions were performed for each sample. […] Elutions were monitored at 230 nm. […]

[1] = tested on: single-stranded oligo(dT)-cellulose; experiment: Control selection of salicylaldimine library on single-stranded oligo(dT)-cellulose; conditions: conditions identical to double-stranded experiment
[2] = Control selection of salicylaldimine library on cellulose alone; conditions: conditions identical to double-stranded experiment
[3] = tested on: double-stranded oligo(dA)-oligo(dT); experiment: Affinity selection and amplification of salicylaldimine library on double-stranded DNA affinity column; conditions: for retention on the affinity column in the presence of zinc: 0.5 mM each of 8-13, with 26 MM ZnCl2, normalized to values in the absence of zinc, two-hour incubation
Excerpt: A serious potential problem with the selection and amplification of a single compound from an equilibrating mixture of complexes is that of identifying the desired high-affinity species. First, if the selection is not complete for a single compound, the separation and identification of a potentially large number of complexes presents a significant analytical challenge. Furthermore, since reequilibration of complexes can occur once the affinity resin is removed, it might be expected that binding information would be lost. […] Application of this technique to the eluent from an affinity column would permit deconvolution of the library to provide information about the identity of binding complexes.
With a series of monomers, verification of self-assembly in aqueous solutions, and a separation method in hand, the experimental tools were in place to conduct an affinity selection and amplification experiment. A standard solution of 0.5 mM 8-13 (total concentration 3 mM in “monomer”) was prepared in 10 mM Tris•HCl, 100 mM KCl, 1% DMSO, pH 7.5. To determine the effect of zinc on the observed selection, samples were prepared either with or without 26 MM ZnCl2. Samples were allowed to incubate for one hour to allow an equilibrium mixture of complexes to form, and the latter were then individually added to affinity columns prepared from 30 mg of commercial poly(dT)-cellulose resin (Pharmacia Biotech) preincubated with one A260 unit (approximately 7 nmol) of oligo (dA)12-18(Oligo (dA)12-18 as obtained from Pharmacia Biotech is a mixture of homopolymeric, single-stranded DNA of length 12 to 18) in 10 mM Tris•HCl, 100 mM KCl, pH 7.5 for formation of double-stranded DNA (giving an approximate, average complex:base pair ratio of 85:1). Following a two-hour incubation of the libraries on the resin, solutions were eluted, lyophilized, and derivatized as described above.

[4] = 41 μM Zn2+, normalized to zinc-free samples

CN1CCCC1CCN (stereo not drawn) [Amine 4, N-methyl 2-aminoethyl pyrrolidine]
amount retained on the column at higher Zn2+ versus 41 μM Zn2+ (oligo (dA•dT); 82 μM Zn2+): significant reduction in the amount of 4 retained | reduction in the amount of derivatized amine in initial elution (in words) (oligo (dA•dT); [4]): significant reduction

NCCCO [Amine 6, 3-hydroxypropylamine]
reduction in the amount of derivatized amine in initial elution (oligo (dA•dT); [4]): > 50%

CN1CCCC1CC/N=C/c1ccccc1O (stereo not drawn) [monomer 9]
retention on oligo(dT)-cellulose, presence versus absence of zinc [1]: to the same extent | retention on cellulose, presence versus absence of zinc [2]: to the same extent | retention on the affinity column in the presence of zinc [3]: most strongly retained

Oc1ccccc1/C=N/CC1CCCO1 (stereo not drawn) [monomer 11]
retention on cellulose, presence versus absence of zinc [2]: more strongly retained | retention on the affinity column in the presence of zinc [3]: most strongly retained

Oc1ccccc1/C=N/CCc1ccccn1 [monomer 12]
derivatized monomer eluted in the presence of zinc versus absence of zinc ([3]; 0.5 mM each of 8-13, with or without 26 MM ZnCl2): twice as much

— patent publication US20020160413A1, “COMBINATORIAL LIBRARIES” (priority 1998, published 2002)
